Values after ≈ are worked out from the molar mass of the structure shown. Some results are limits rather than exact numbers.

In DBAASP one finds MIC data, which are given here for nine compounds.

Test in all cases: ≥ marks a high value that may be exact or a test limit, other limits are often not marked, values filed in µg/mL are converted to µM
Assay [1] deals with Pseudomonas aeruginosa ATCC 27853.
Assay [2] relates to Staphylococcus aureus ATCC 29313.
The subject of assay [3] is Xanthomonas axonopodis pv. glycines ISBF 327.
Assay [4] concerns Escherichia coli ATCC 25922.
Assay [5] deals with Enterococcus faecalis ATCC 29212.
Assay [6] concerns Saccharomyces cerevisiae.
In assay [7] the test system is Acinetobacter baumannii ATCC 19606.
Assay [8] has as its system Staphylococcus aureus ATCC 43300.
Assay [9] relates to Escherichia coli ML-35p.
The subject of assay [10] is Staphylococcus aureus ATCC 25923.
Assay [11] deals with Staphylococcus aureus ATCC BAA-44.
The subject of assay [12] is Candida parapsilosis ATCC 22019.
Assay [13] relates to Staphylococcus aureus ST1065.
Assay [14] relates to Klebsiella pneumoniae ATCC 13883.
The subject of assay [15] is Streptococcus pyogenes ATCC 19615.
For assay [16], the system named is Staphylococcus xylosus.
Assay [17] deals with Escherichia coli DH5alpha.
Assay [18] relates to Bacillus anthracis Sterne 34F2.
Assay [19] deals with Burkholderia thailandensis.
The test system of assay [20] is Micrococcus luteus.
Assay [21] deals with Neurospora crassa.
In assay [22] the test system is Bacillus subtilis ATCC 9372.
Assay [23] deals with Bacillus cereus ATCC 11778.
Assay [24] relates to Staphylococcus aureus ATCC 29213.
The subject of assay [25] is Salmonella enterica subsp. enterica serovar Typhimurium ATCC 14028.
Assay [26] relates to Klebsiella aerogenes ATCC 13048.
Assay [27] relates to Micrococcus luteus ATCC 10240.
The test system of assay [28] is Escherichia coli BL21AI.

Take `CC[C@H](C)[C@H](NC(=O)[C@@H](NC(=O)[C@H](CCCCN)NC(=O)CNC(=O)[C@H](C)NC(=O)[C@H](CC(C)C)NC(=O)[C@H](CC(N)=O)NC(=O)[C@H](CCCCN)NC(=O)[C@H](CC(C)C)NC(=O)[C@@H](NC(=O)[C@H](CC(=O)O)NC(=O)[C@H](Cc1ccccc1)NC(=O)[C@H](Cc1ccccc1)NC(=O)[C@@H](N)Cc1ccccc1)[C@@H](C)O)C(C)C)C(=O)NCC(=O)N[C@@H](C)C(=O)N[C@@H](CC(C)C)C(=O)N[C@H](C(N)=O)[C@@H](C)O` [FFFDTLKNLAGKVIGALT]: the MIC (commonly the smallest concentration in the dilution series that meets the test's criterion for growth inhibition) in [1] is 125 µM (≈ 244 µg/mL); in assay [2] it was no less than 62 µM; in [3], no less than 33 µM; in [4], 62 µM (≈ 121 µg/mL).

Regarding `CSCC[C@H](NC(=O)[C@H](Cc1ccccc1)NC(=O)CNC(=O)[C@H](Cc1ccccc1)NC(=O)[C@H](C)NC(=O)[C@H](CCCN=C(N)N)NC(=O)[C@H](CC(N)=O)NC(=O)[C@H](Cc1ccccc1)NC(=O)[C@H](CC(=O)O)NC(=O)[C@H](CCCCN)NC(=O)[C@H](Cc1ccccc1)NC(=O)[C@H](Cc1cnc[nH]1)NC(=O)[C@H](Cc1ccccc1)NC(=O)[C@H](CCC(N)=O)NC(=O)[C@H](CCCCN)NC(=O)[C@@H](N)Cc1ccccc1)C(=O)N[C@H](C(=O)N[C@@H](CCCN=C(N)N)C(=O)N[C@H](C(=O)N[C@@H](C)C(=O)N[C@@H](CC(C)C)C(=O)N[C@@H](CCC(N)=O)C(=O)N[C@@H](C)C(=O)N[C@@H](CCC(=O)O)C(=O)N[C@@H](CCCCN)C(=O)N[C@@H](CC(C)C)C(N)=O)C(C)C)[C@@H](C)O` [FKQFHFKDFNRAFGFMTRVALQAEKL], the minimal inhibitory concentration (MIC) in assay [1] is 80 µM (≈ 254 µg/mL); in assay [3], no less than 40 µM; in [4] it was 40 µM (≈ 127 µg/mL).

With `CC[C@H](C)[C@H](NC(=O)[C@H](Cc1cnc[nH]1)NC(=O)[C@@H]1CCCN1C(=O)[C@@H](NC(=O)[C@H](CC(C)C)NC(=O)[C@H](CO)NC(=O)[C@H](CC(C)C)NC(=O)[C@@H](N)Cc1ccccc1)[C@@H](C)CC)C(=O)N[C@H](C(=O)N[C@@H](CO)C(=O)NCC(=O)N[C@H](C(=O)N[C@@H](C)C(=O)N[C@@H](CO)C(=O)N[C@@H](CC(C)C)C(=O)N[C@@H](C)C(=O)N[C@@H](CCCCN)C(=O)N[C@@H](Cc1cnc[nH]1)C(=O)N[C@@H](Cc1ccccc1)C(N)=O)C(C)C)C(C)C` [FLSLIPHIVSGVASLAKHF], the MIC in assay [1] is 200 µM (≈ 407 µg/mL); in assay [5], 25 µM (≈ 50.9 µg/mL); in assay [6] it was 6.25 µM (≈ 12.7 µg/mL); in [7], 6.25 µM (≈ 12.7 µg/mL); in [8], 6.25 µM (≈ 12.7 µg/mL); in assay [9], 30 µM (≈ 61.1 µg/mL). The MIC in assay [10] was 6.25 µM (≈ 12.7 µg/mL); in assay [11], 6.25 µM (≈ 12.7 µg/mL); in assay [12] it was no less than 50 µM; in assay [13] it was 6.25 µM (≈ 12.7 µg/mL); in [14], 25 µM (≈ 50.9 µg/mL); in [15], 1.56 µM (≈ 3.18 µg/mL). In [4], this compound had an MIC of 25 µM (≈ 50.9 µg/mL).

For the compound `CC[C@H](C)[C@H](NC(=O)CNC(=O)[C@H](CO)NC(=O)CN)C(=O)N[C@@H](CC(C)C)C(=O)N[C@H](C(=O)N[C@@H](CC(C)C)C(=O)N[C@H](C(=O)N[C@@H](CCCCN)C(=O)N[C@@H](CCCN=C(N)N)C(=O)N[C@@H](CCCCN)C(=O)O)[C@@H](C)CC)[C@@H](C)CC` [GSGILILIKRK], the MIC in [16] and in assay [17] was no less than 64 µM each time.

As to `CC[C@H](C)[C@H](NC(=O)[C@@H]1CCCN1C(=O)CNC(=O)[C@@H]1CCCN1C(=O)[C@H](CCCN=C(N)N)NC(=O)[C@@H]1CCCN1C(=O)[C@H](CCC(N)=O)NC(=O)[C@H](CC(N)=O)NC(=O)[C@@H]1CCCN1C(=O)[C@H](CC(N)=O)NC(=O)[C@H](Cc1ccccc1)NC(=O)[C@@H]1CCCN1C(=O)[C@H](CO)NC(=O)[C@@H]1CCCN1C(=O)[C@H](CCCN=C(N)N)NC(=O)[C@@H](NC(=O)[C@H](CC(=O)O)NC(=O)[C@H](Cc1ccccc1)NC(=O)[C@@H](NC(=O)[C@@H]1CCCN1C(=O)CNC(=O)[C@H](CCC(N)=O)NC(=O)[C@H](Cc1cnc[nH]1)NC(=O)[C@H](CCCN=C(N)N)NC(=O)[C@@H](N)Cc1cnc[nH]1)[C@@H](C)CC)[C@@H](C)O)C(=O)N[C@@H](Cc1ccc(O)cc1)C(=O)O` [HRHQGPIFDTRPSPFNPNQPRPGPIY], the MIC in assay [18] was no less than 100 µM; in assay [19], no less than 50 µM; in [20], 0.707 µM (≈ 2.14 µg/mL); in [21], 0.707 µM (≈ 2.14 µg/mL); in assay [22] it was no less than 100 µM.

With `CC[C@H](C)[C@H](N)C(=O)N[C@@H](CC(C)C)C(=O)NCC(=O)N[C@@H](C)C(=O)N[C@H](C(=O)N[C@@H](Cc1c[nH]c2ccccc12)C(=O)N[C@@H](CC(N)=O)C(=O)NCC(=O)N[C@H](C(=O)N[C@@H](CCCCN)C(=O)N[C@@H](CO)C(=O)N[C@@H](CC(C)C)C(=O)N[C@@H](Cc1ccccc1)C(N)=O)C(C)C)C(C)C` [ILGAVWNGVKSLF], the MIC in assay [23] is no less than 71.2 µM; in [24] it was greater than 71.2 µM; in assay [25], greater than 71.2 µM; in assay [26], no less than 71.2 µM; in assay [4], greater than 71.2 µM.

In the case of `CC[C@H](C)[C@H](N)C(=O)N[C@@H](CC(C)C)C(=O)NCC(=O)N[C@@H](CCCCN)C(=O)N[C@H](C(=O)N[C@@H](Cc1c[nH]c2ccccc12)C(=O)N[C@@H](CCC(=O)O)C(=O)NCC(=O)N[C@H](C(=O)N[C@@H](CCC(=O)O)C(=O)N[C@@H](CO)C(=O)N[C@@H](CC(C)C)C(=O)N[C@@H](Cc1ccccc1)C(N)=O)[C@@H](C)CC)[C@@H](C)CC` [ILGKIWEGIESLF], the MIC in assay [23] was no less than 66.5 µM; in [24], greater than 66.5 µM; in assay [25], greater than 66.5 µM; in [26] it was no less than 66.5 µM; in [4] it was greater than 66.5 µM.

For the compound `NCCCC[C@H](NC(=O)[C@H](CCCN=C(N)N)NC(=O)[C@H](CCCCN)NC(=O)[C@H](CO)NC(=O)CNC(=O)[C@H](CO)NC(=O)CNC(=O)[C@H](CO)NC(=O)[C@H](CCCCN)NC(=O)[C@H](CCCN=C(N)N)NC(=O)[C@@H](N)CCCCN)C(=O)O` [KRKSGSGSKRK], the MIC in [16] and in assay [17] was no less than 64 µM each time.

Consider `CC[C@H](C)[C@H](NC(=O)[C@H](C)NC(=O)[C@H](CCCN=C(N)N)NC(=O)[C@@H]1CCCN1C(=O)[C@@H]1CCCN1C(=O)[C@H](CCCN=C(N)N)NC(=O)[C@@H]1CCCN1C(=O)[C@H](CCCN=C(N)N)NC(=O)[C@@H]1CCCN1C(=O)[C@H](CC(C)C)NC(=O)[C@H](Cc1ccc(O)cc1)NC(=O)[C@@H]1CCCN1C(=O)[C@@H]1CCCN1C(=O)[C@H](CCCCN)NC(=O)[C@H](CC(=O)O)NC(=O)[C@@H](N)C(C)C)C(=O)N[C@@H](Cc1ccc(O)cc1)C(=O)N[C@@H](CC(N)=O)C(=O)N[C@@H](CCCN=C(N)N)C(N)=O` [VDKPPYLPRPRPPRAIYNR], for which the MIC in [27] was found to be 6.94 µM (≈ 16 µg/mL); in assay [28], 13.9 µM (≈ 32 µg/mL).
